# Measured values as given in patent US20260191887A1, “METHODS OF TREATING INFLAMMATION” (THERAPEUTIKOS, INC., priority 2022, published 2026).
# Legend:
# Cox-2 = assay: Western blot of Cox-2 expression in LPS-activated RAW264.7 macrophages; assay type: cell-based, mouse; settings: LPS 100 ng/mL; NDX1 0.1 and 1 mM, NDX2 and NAG 0.5 and 5 mM
# Description: Mouse RAW264.7 macrophage cell line (ATCC; Manassas, VA, USA) was maintained in DMEM culture medium containing 10% FBS and 1% antibiotic mix. For cell treatment, the test drugs at different doses were added to the culture 0.5 h prior to addition of 100 ng/mL LPS (Sigma-Aldrich Co., St Louis, MO, USA) and then cells were co-treated with LPS for 24 hours.
# The cellular proteins were prepared from cells growing on a 6-well plate (approximately 500,000/well) using a commercial cell lysis buffer (Thermo Scientific). Then the protein concentration was determined using the Bradford protein assay kit (Bio-Rad, Hercules, CA, USA). The samples containing 100 μg proteins were run on 10% SDS-polyacrylamide gels at a […] and electro-transferred to nitrocellulose membranes (Thermo Scientific) at a constant voltage of 10 V overnight. […] Using the magic wand tool from the tool palette, the area of each band was selected, and the mean histogram were recorded and then charted. […]
# [1] = system: primary mouse peritoneal macrophages; assay: WST-1 assay in LPS-activated primary mouse peritoneal macrophages; assay type: cell-based; settings: LPS 100 ng/mL, doses of up to 1 mM, 24 h, n=8
# Description: • 1. Non treatment (NT) • 2. LPS 100 ng/mL • 3. LPS 100 ng/mL+NDX1 dose1* • 4. LPS 100 ng/mL+NDX1 dose2* • 5. LPS 100 ng/mL+NDX1 dose3* • 6. LPS 100 ng/mL+NDX2 dose1 • 7. LPS 100 ng/mL+NDX2 dose2 • 8. LPS 100 ng/mL+NDX2 dose3 • 9. LPS 100 ng/mL+NAG dose2 • 10. LPS 100 ng/mL+NAG dose3 (*dose 1, 2, 3 were selected as low, middle and high dose with no cytotoxicity from the cytotoxic assay) The peritoneal macrophages were isolated from peritoneal cavity, and cultured in Dulbecco's modified Eagle's medium (DMEM, Gibco BRL, Gaithersburg, MD) supplemented with 10% fetal bovine serum (FBS) (Hyclone Laboratories, Logan, VT) and 100 IU/mL penicillin G and 100 µg/mL streptomycin, in a humidified atmosphere of 5% carbon dioxide at 37° C. Cells will grow on a 96-well plate and co-treated with 100 ng/ml LPS (Sigma-Aldrich) 0.5 hours after addition of BNAGs and NAG. Twenty-four hours later, the cell number was counted by using the WST-1 kit (Fisher Scientific). After removal of the supernatant, […] new medium was added into each cell. Then 15 μl Cell Proliferation Reagent WST-1 was added and incubated with cells for 3 hours in dark with a humidified atmosphere of 5% carbon dioxide at 37° C. Each sample was determined at 450 nm on a microplate reader.
# [2] = system: mouse macrophage cell line RAW264.7 cells; assay: WST-1 cytotoxicity assay in RAW264.7 cells; assay type: cell-based; settings: concentrations up to 5 mM, 24 h, n=8
# Description: Mouse RAW264.7 macrophage cell line (ATCC; Manassas, VA, USA) was maintained in DMEM culture medium containing 10% FBS and 1% antibiotic mix. For cell treatment, the test drugs at different doses were added to the culture 0.5 h prior to addition of 100 ng/mL LPS (Sigma-Aldrich Co., St Louis, MO, USA) and then cells were co-treated with LPS for 24 hours. Macrophages in the control group and the treatment groups was seeded on a 96-well plate for 24 hrs and the cell number was counted using the WST-1 kit (Fisher Scientific). After removal of the supernatant, 150 μL of the fresh medium was added into each well. Then 15 μL of the Cell Proliferation Reagent WST-1 was added and incubated with cells for 3 hrs in dark with a humidified atmosphere of 5% carbon dioxide at 37° C. Each sample was determined at 450 nm on a microplate reader. No drugs were added in the non-treatment group (NT). There were eight repeats in each group (n=8). The experiment was duplicated.
# IL-6 = IL-6 ELISA in LPS-activated primary mouse peritoneal macrophages; assay type: cell-based; settings: LPS 100 ng/mL; NDX1 and NDX2 0.01, 0.1, 1 mM; NAG 0.1 and 1 mM; n=8
# Description: • 1. Non treatment (NT) • 2. LPS 100 ng/mL • 3. LPS 100 ng/mL+NDX1 dose1* • 4. LPS 100 ng/mL+NDX1 dose2* • 5. LPS 100 ng/mL+NDX1 dose3* • 6. LPS 100 ng/mL+NDX2 dose1 • 7. LPS 100 ng/mL+NDX2 dose2 • 8. LPS 100 ng/mL+NDX2 dose3 • 9. LPS 100 ng/mL+NAG dose2 • 10. LPS 100 ng/mL+NAG dose3 (*dose 1, 2, 3 were selected as low, middle and high dose with no cytotoxicity from the cytotoxic assay)
# The peritoneal macrophages were isolated from peritoneal cavity, and cultured in Dulbecco's modified Eagle's medium (DMEM, Gibco BRL, Gaithersburg, MD) supplemented with 10% fetal bovine serum (FBS) (Hyclone Laboratories, Logan, VT) and 100 IU/mL penicillin G and 100 µg/mL streptomycin, in a humidified atmosphere of 5% carbon dioxide at 37° C. Cells will grow on a 96-well plate and co-treated with 100 ng/ml LPS (Sigma-Aldrich) 0.5 hours after addition of BNAGs and NAG. Twenty-four hours later, the cell number was counted by using the WST-1 kit (Fisher Scientific). After removal of the supernatant, […] new medium was added into each cell. […] Each sample was determined at 450 nm on a microplate reader.
# The amounts of IL-6 and TNFα were measured by a commercial ELISA kit (Sigma-Aldrich), following the instructions provided by the manufacturer. […] The resultant solutions were read at 450 nm on a microplate reader.
compound,measurement,setting,value
"CC(=O)N[C@H]1C(O)O[C@H](CO)[C@@H](O)[C@@H]1O (stereo partly shown) [NAG, N-acetyl glucosamine]",rank order for inhibition of Cox-2 expression (western blot),Cox-2,NAG>NDX2>NDX1
same,effect on cell number (WST-1) compared with LPS alone,[1],no significant effect on cell number
same,toxicity / cell growth (WST-1),[2],less toxicity than NDX1
same,reduction of IL-6 production (ELISA),IL-6,could significantly reduce IL-6 and TNFa production
